Where two headings read alike, the source gives them in different places.
Assay: Tissue distribution of compound A26 in mice (plasma / cerebrospinal fluid drug concentration)
Type: in vivo
Details: for Kp at 0.25 h / Kp at 0.5 h / concentration at 15 min / concentration at 30 min: mouse; for Kp at 0.25 h / Kp at 0.5 h: brain/plasma, read-out: Brain to plasma drug concentration ratio (Cbrain/Cplasma); for Kp at 0.25 h / concentration at 15 min: 15 min; for Kp at 0.5 h / concentration at 30 min: 30 min
Protocol: The drug concentrations in plasma or cerebrospinal fluid at two time points of 15 minutes and 30 minutes under three administration routes: oral (20 mg/kg), intraperitoneal injection (10 mg/kg), and intravenous injection (5 mg/kg) were measured.

[1] = cerebrospinal fluid, IP 10 mg/kg, read-out: cerebrospinal fluid
[2] = cerebrospinal fluid, IV 5 mg/kg, read-out: cerebrospinal fluid
[3] = cerebrospinal fluid, PO 20 mg/kg, read-out: cerebrospinal fluid
[4] = plasma, IP 10 mg/kg, read-out: Cardiac plasma
[5] = plasma, IV 5 mg/kg, read-out: Cardiac plasma
[6] = plasma, PO 20 mg/kg, read-out: Cardiac plasma

SMILES: COc1cc2c(cc1OC)C(CCc1c[nH]c3ccccc13)N(CC1CCOCC1)CC2 (stereo not shown) [Compound A26, 1-(2-(1H-indol-3-yl)ethyl)-6,7-dimethoxy-2-((tetrahydro-2H-pyran-4-yl)methyl)-1,2,3,4-tetrahydroisoquinoline]
- blood-brain barrier penetration ability and brain targeting property (conclusion from brain/plasma ratios): good
- Kp at 0.25 h (IP 10 mg/kg): 2.12
- Kp at 0.5 h (IP 10 mg/kg): 1.91
- Kp at 0.25 h (IV 5 mg/kg): 3.3
- Kp at 0.5 h (IV 5 mg/kg): 2.2
- Kp at 0.25 h (PO 20 mg/kg): 3.4
- Kp at 0.5 h (PO 20 mg/kg): 1.6
- concentration at 15 min [1]: 665 ± 49 ng/g
- concentration at 30 min [1]: 355 ± 106 ng/g
- concentration at 15 min [2]: 1560 ± 245 ng/g
- concentration at 30 min [2]: 292 ± 69 ng/g
- concentration at 15 min [3]: 224 ± 363 ng/g
- concentration at 30 min [3]: 32.4 ± 11.9 ng/g
- concentration at 15 min [4]: 313 ± 15 ng/mL
- concentration at 30 min [4]: 186 ± 57 ng/mL
- concentration at 15 min [5]: 466 ± 85 ng/mL
- concentration at 30 min [5]: 135 ± 47 ng/mL
- concentration at 15 min [6]: 65.3 ± 94.7 ng/mL
- concentration at 30 min [6]: 20.7 ± 6.1 ng/mL

From patent US20260053792A1, “POLYSUBSTITUTED TETRAHYDROISOQUINOLINE COMPOUNDS, METHOD FOR PREPARING SAME, PHARMACEUTICAL COMPOSITION THEREOF, AND USE THEREOF” (SHANGHAI INSTITUTE OF MATERIA MEDICA, CHINESE ACADEMY OF …, priority 2022, published 2026)
